The results in this text go back to patent publication US8450243B2, “Herbicidal quinoline and 1,8-naphthyridine compounds” (Syngenta Limited, priority 2009, dated 2013).

Molecules are shown by their SMILES.

Holding throughout (type): in vivo
The test system of assay [1] is Amaranthus retoflexus (AMARE). Put plainly: Herbicidal glasshouse test, post-emergence. As to conditions: POST Application, evaluated after 13 days; for damage to plant (100=total damage to plant; 0=no damage to plant): 250 g/ha. The procedure: (§1) Seeds of a variety of test species were sown in standard soil in pots (Alopecurus myosuroides (ALOMY), Setaria faberi (SETFA), Echinochloa crus-galli (ECHCG), Abuthilon theophrasti (ABUTH) and Amaranthus retoflexus (AMARE)). After cultivation for one day (pre-emergence) or after 8 days cultivation (post-emergence) under controlled conditions in a glasshouse (at 24/16° C., day/night; 14 hours light; 65% humidity), the plants were sprayed with an aqueous spray solution derived from the formulation of the technical active ingredient in acetone/water (50:50) solution containing 0.5% Tween 20 (polyoxyethelyene sorbitan monolaurate, CAS RN 9005-64-5). Compounds were applied at 250 g/ha. The test plants were then grown in a glasshouse under controlled conditions in a glasshouse (at 24/16° C., day/night; 14 hours light; 65% humidity) and watered twice daily. After 13 days for pre and post-emergence, the test was evaluated (100=total damage to plant; 0=no damage to plant).

Assay [2] concerns Abuthilon theophrasti (ABUTH). The assay is described as follows: Herbicidal glasshouse test, post-emergence. As to conditions: POST Application, evaluated after 13 days; for damage to plant (100=total damage to plant; 0=no damage to plant): 250 g/ha. Here is the method:
as §1

Assay [3] relates to Alopecurus myosuroides (ALOMY). Put plainly: Herbicidal glasshouse test, post-emergence. As to conditions: POST Application, evaluated after 13 days; for damage to plant (100=total damage to plant; 0=no damage to plant): 250 g/ha. Here is the method: as §1
Assay [4] concerns Echinochloa crus-galli (ECHCG). Put plainly: Herbicidal glasshouse test, post-emergence. As to conditions: POST Application, evaluated after 13 days; for damage to plant (100=total damage to plant; 0=no damage to plant): 250 g/ha. Here is the method: as §1
Assay [5] has as its system Setaria faberi (SETFA). Put plainly: Herbicidal glasshouse test, post-emergence. As to conditions: POST Application, evaluated after 13 days; for damage to plant (100=total damage to plant; 0=no damage to plant): 250 g/ha. Here is the method: as §1
Assay [6] has as its system Amaranthus retoflexus (AMARE). The assay is described as follows: Herbicidal glasshouse test, pre-emergence. As to conditions: PRE Application, evaluated after 13 days; for damage to plant (100=total damage to plant; 0=no damage to plant): 250 g/ha. Here is the method: as §1
Assay [7] relates to Abuthilon theophrasti (ABUTH). Put plainly: Herbicidal glasshouse test, pre-emergence. As to conditions: PRE Application, evaluated after 13 days; for damage to plant (100=total damage to plant; 0=no damage to plant): 250 g/ha. The procedure:
as §1

For assay [8], the system named is Alopecurus myosuroides (ALOMY). Put plainly: Herbicidal glasshouse test, pre-emergence. As to conditions: PRE Application, evaluated after 13 days; for damage to plant (100=total damage to plant; 0=no damage to plant): 250 g/ha. Here is the method: as §1
Assay [9] has as its system Echinochloa crus-galli (ECHCG). The assay is described as follows: Herbicidal glasshouse test, pre-emergence. As to conditions: PRE Application, evaluated after 13 days; for damage to plant (100=total damage to plant; 0=no damage to plant): 250 g/ha. The procedure:
as §1

The subject of assay [10] is Setaria faberi (SETFA). Put plainly: Herbicidal glasshouse test, pre-emergence. As to conditions: PRE Application, evaluated after 13 days; for damage to plant (100=total damage to plant; 0=no damage to plant): 250 g/ha. Here is the method:
as §1

For `O=C1CCCC(=O)C1C(=O)c1cc2cc(F)cnc2n(-c2cccc(C(F)(F)F)c2)c1=O` [Compound 4.11], the “damage to plant (100=total damage to plant; 0=no damage to plant)” value in assay [1] amounted to 90; in assay [2], 100; in assay [3], 90; in [4] it was 90; with Setaria faberi (SETFA) [5], 90; in assay [6] it was 100. The “damage to plant (100=total damage to plant; 0=no damage to plant)” value in [7] came out at 90; in assay [8] it was 70; in assay [9], 90; with Setaria faberi (SETFA) [10], 80.

In the case of `O=C1CCCC(=O)C1C(=O)c1cc2cc(F)cnc2n(Cc2ccccc2F)c1=O` [Compound 4.15], the “damage to plant (100=total damage to plant; 0=no damage to plant)” value in [1] was found to be 50; in assay [2], 80; in assay [3], 30; in assay [4] it was 80; with Setaria faberi (SETFA) [5] it was 70; in assay [6] it was 50. Moreover, the “damage to plant (100=total damage to plant; 0=no damage to plant)” value in [7] worked out at 70; in assay [8], 0; in assay [9], 80; in the assay on Setaria faberi (SETFA) [10], 0.

`O=C1CCCC(=O)C1C(=O)c1cc2cc(F)cnc2n(CCOc2ccccc2)c1=O` [Compound 4.16]: the pest or weed control at 250 g/ha worked out at 50% in assay [1] (Amaranthus retroflexus, post-emergence, 312 h, read-out: damage to plant (100=total damage to plant; 0=no damage to plant)); 80% in assay [2] (Abutilon theophrasti, post-emergence, 312 h, read-out: damage to plant (100=total damage to plant; 0=no damage to plant)); 40% in assay [3] (Alopecurus myosuroides, post-emergence, 312 h, read-out: damage to plant (100=total damage to plant; 0=no damage to plant)); 80% in [4] (Echinochloa crus-galli, post-emergence, 312 h, read-out: damage to plant (100=total damage to plant; 0=no damage to plant)); 60% in the assay on Setaria faberi (SETFA) [5] (Setaria faberi, post-emergence, 312 h, read-out: damage to plant (100=total damage to plant; 0=no damage to plant)); 30% in assay [6] (Amaranthus retroflexus, pre-emergence, 312 h, read-out: damage to plant (100=total damage to plant; 0=no damage to plant)). Besides, the pest or weed control at 250 g/ha in assay [7] (Abutilon theophrasti, pre-emergence, 312 h, read-out: damage to plant (100=total damage to plant; 0=no damage to plant)) came out at 50%; in [8] (Alopecurus myosuroides, pre-emergence, 312 h, read-out: damage to plant (100=total damage to plant; 0=no damage to plant)), 20%; in assay [9] (Echinochloa crus-galli, pre-emergence, 312 h, read-out: damage to plant (100=total damage to plant; 0=no damage to plant)), 50%; with Setaria faberi (SETFA) [10] (Setaria faberi, pre-emergence, 312 h, read-out: damage to plant (100=total damage to plant; 0=no damage to plant)) it was 20%.

Consider `COc1ccc(Cn2c(=O)c(C(=O)C3C(=O)CCCC3=O)cc3cc(F)cnc32)cc1` [Compound 4.17], for which the “damage to plant (100=total damage to plant; 0=no damage to plant)” value in assay [1] was 50; in assay [2], 70; in assay [3], 0; in [4], 80; with Setaria faberi (SETFA) [5] it was 60; in assay [6] it was 90. For the same compound, the “damage to plant (100=total damage to plant; 0=no damage to plant)” value is 70 in [7], 0 in [8], 70 in assay [9] and 20 in the assay on Setaria faberi (SETFA) [10].

In the case of `COc1ccc(-n2c(=O)c(C(=O)C3C(=O)CCCC3=O)cc3cc(F)cnc32)cc1` [Compound 4.18], the “damage to plant (100=total damage to plant; 0=no damage to plant)” value in assay [1] is reported as 80; in assay [2], 80; in assay [3], 80; in assay [4], 80; in the assay on Setaria faberi (SETFA) [5] it was 80; in [6], 90. Further, the “damage to plant (100=total damage to plant; 0=no damage to plant)” value stood at 90 in [7], 70 in assay [8], 100 in assay [9] and 70 with Setaria faberi (SETFA) [10].

As for `COc1ccc(-n2c(=O)c(C(=O)C3C(=O)CCCC3=O)cc3cc(F)cnc32)cn1` [Compound 4.20], the “damage to plant (100=total damage to plant; 0=no damage to plant)” value in assay [1] is reported as 60; in assay [2], 80; in assay [3], 80; in [4], 80; in the assay with Setaria faberi (SETFA) [5], 80; in assay [6], 100. Also, the “damage to plant (100=total damage to plant; 0=no damage to plant)” value was determined as 100 in assay [7], 90 in assay [8], 100 in [9] and 70 with Setaria faberi (SETFA) [10].

Take `Cc1ccccc1-n1c(=O)c(C(=O)C2C(=O)CCCC2=O)cc2cc(F)cnc21` [Compound 4.22]: the “damage to plant (100=total damage to plant; 0=no damage to plant)” value in assay [1] was found to be 70; in assay [2], 80; in [3], 80; in assay [4] it was 70; in the assay on Setaria faberi (SETFA) [5], 80; in [6] it was 100. Also, the “damage to plant (100=total damage to plant; 0=no damage to plant)” value in assay [7] is recorded as 90; in assay [8], 90; in assay [9] it was 100; in the assay on Setaria faberi (SETFA) [10], 100.

For `O=C1CCCC(=O)C1C(=O)c1cc2cc(F)cnc2n(-c2cc(Cl)cc(Cl)c2)c1=O` [Compound 4.23], the “damage to plant (100=total damage to plant; 0=no damage to plant)” value is recorded as 80 in assay [1]; 80 in assay [2]; 70 in assay [3]; 80 in [4]; 70 in the assay with Setaria faberi (SETFA) [5]; 70 in assay [6]. For the same compound, the “damage to plant (100=total damage to plant; 0=no damage to plant)” value in [7] worked out at 80; in assay [8] it was 90; in [9] it was 100; in the assay on Setaria faberi (SETFA) [10] it was 90.

`Cc1ccc(-n2c(=O)c(C(=O)C3C(=O)CCCC3=O)cc3cc(F)cnc32)cc1` [Compound 4.24]: the “damage to plant (100=total damage to plant; 0=no damage to plant)” value in [1] is 80; in assay [2] it was 90; in [3] it was 70; in assay [4] it was 80; with Setaria faberi (SETFA) [5], 80; in [6] it was 100. In addition, the “damage to plant (100=total damage to plant; 0=no damage to plant)” value was 100 in [7], 80 in [8], 100 in assay [9] and 90 in the assay with Setaria faberi (SETFA) [10].

Take `O=C1CCCC(=O)C1C(=O)c1cc2cc(F)cnc2n(-c2cccc(Cl)c2)c1=O` [Compound 4.25]: the “damage to plant (100=total damage to plant; 0=no damage to plant)” value in assay [1] is on record as 70; in [2] it was 80; in assay [3], 80; in assay [4], 80; in the assay on Setaria faberi (SETFA) [5] it was 80; in [6] it was 50. The “damage to plant (100=total damage to plant; 0=no damage to plant)” value in assay [7] turned out to be 90; in [8], 90; in assay [9], 100; with Setaria faberi (SETFA) [10] it was 100.
